pIC50: −log10 of the molar value.
Experiments:
MCF-7 cells = assay: Breast Cancer Cell Viability Assays (MCF-7, CellTiter-Glo); assay type: cell-based; conditions: 5 days' compound exposure; for pIC50: Homo sapiens, MCF7, 120 h
Method in brief: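 Percent viability, background-subtracted against untreated wells, was taken from CellTiter-Glo luminescence after 5 days' exposure of MCF-7 cells. Compounds were tested at eleven semilog concentrations, final 0.3–0.000003 μM, in RPMI containing 10% FBS.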

ER-α in MCF-7 cells = biological target: T1, ER-α in MCF-7 cells (Homo sapiens, UniProt P03372); assay: Breast Cancer Cell ER-α In Cell Western Assay (SP1); assay type: cell-based; conditions: 4 or 24 hr post compound addition; for Emax: MCF7, SP1 antibody, read-out: ER-α In Cell Western Assay (SP1) Max Response; for DC50: SP1 antibody, read-out: ER-α In Cell Western Assay (SP1) IC50
T1 construct: endogenous in cells; host or cells: MCF-7
T1 sequence (P03372 1-595): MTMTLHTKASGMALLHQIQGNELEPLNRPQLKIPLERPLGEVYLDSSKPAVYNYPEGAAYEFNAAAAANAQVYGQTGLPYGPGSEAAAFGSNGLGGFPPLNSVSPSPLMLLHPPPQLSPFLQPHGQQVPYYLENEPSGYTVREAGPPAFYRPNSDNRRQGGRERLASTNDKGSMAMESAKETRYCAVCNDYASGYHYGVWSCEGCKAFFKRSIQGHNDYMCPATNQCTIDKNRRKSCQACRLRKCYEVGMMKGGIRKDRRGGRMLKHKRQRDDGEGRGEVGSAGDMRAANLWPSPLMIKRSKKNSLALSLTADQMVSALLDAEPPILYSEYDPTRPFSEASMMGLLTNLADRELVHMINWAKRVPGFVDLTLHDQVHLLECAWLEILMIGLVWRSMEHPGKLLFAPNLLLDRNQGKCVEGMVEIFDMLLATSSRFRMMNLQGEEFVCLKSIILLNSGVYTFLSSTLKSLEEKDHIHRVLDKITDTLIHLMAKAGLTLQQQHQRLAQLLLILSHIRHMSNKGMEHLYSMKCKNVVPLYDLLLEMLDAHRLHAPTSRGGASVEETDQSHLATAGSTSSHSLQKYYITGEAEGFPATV
Method in brief: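 ER-α levels quantified by in-cell western: SP1 signal normalised to DRAQ5 DNA stain, relative to untreated cells (% ER). Compounds at 0.3–0.000003 μM final, 11-point semilog series, 4 or 24 h exposure of MCF-7 cells grown in charcoal-stripped serum.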

Row | pIC50 (MCF-7 cells) | Emax (ER-α in MCF-7 cells) [%] | DC50 (ER-α in MCF-7 cells) [nM] | SMILES | MCF7 Viability Assay Max Response (MCF-7 cells)
1 | ≥ 7.00 | ≥ 40 | ≤ 100 | Fc1n[nH]c2ccc(/C(=C(/c3ccccc3)C3CCC3)c3ccc(/C=C/c4nnc[nH]4)cc3)cc12 [Example 284, 5-((E)-1-(4-((E)-2-(4H-1,2,4-Triazol-3-yl)vinyl)phenyl)-2-cyclobutyl-2-phenylvinyl)-3-fluoro-1H-indazole] | ++ (++ = a single % value ≧ 40%)
2 | ≥ 7.00 | ≥ 40 | ≤ 100 | Fc1n[nH]c2ccc(/C(=C(/c3ccccc3)C3CCC3)c3ccc(/C=C/c4ncc[nH]4)cc3)cc12 [Example 285, 5-((E)-1-(4-((E)-2-(1H-Imidazol-2-yl)vinyl)phenyl)-2-cyclobutyl-2-phenylvinyl)-3-fluoro-1H-indazole] | ++ (++ = a single % value ≧ 40%)
3 | ≥ 7.00 | ≥ 40 | ≤ 100 | Fc1n[nH]c2ccc(/C(=C(/c3ccccc3)C3CCC3)c3ccc(/C=C/c4cnn[nH]4)cc3)cc12 [Example 286, 5-((E)-1-(4-((E)-2-(1H-1,2,3-Triazol-5-yl)vinyl)phenyl)-2-cyclobutyl-2-phenylvinyl)-3-fluoro-1H-indazole] | ++ (++ = a single % value ≧ 40%)

More lines, now with the values behind:

Row | SMILES | pIC50 (MCF-7 cells) | Emax (ER-α in MCF-7 cells) [%] | DC50 (ER-α in MCF-7 cells) [nM] | MCF7 Viability Assay Max Response (MCF-7 cells)
4 | O=c1[nH]c(/C=C/c2ccc(/C(=C(\c3ncc(C(F)(F)F)cc3Cl)C3CCC3)c3ccc4[nH]nc(F)c4c3)cc2)no1 [Example 279, 3-((E)-4-((E)-2-(3-Chloro-5-(trifluoromethyl)pyridin-2-yl)-2-cyclobutyl-1-(3-fluoro-1H-indazol-5-yl)vinyl)styryl)-1,2,4-oxadiazol-5(4H)-one] | ≥ 7.00 | ≥ 40 | ≤ 100 | ++ (++ = a single % value ≧ 40%)
5 | N#Cc1cc(C(F)(F)F)ccc1/C(=C(\c1ccc(/C=C/c2noc(=O)[nH]2)cc1)c1ccc2[nH]nc(F)c2c1)C1CCC1 [Example 280, 2-((E)-1-Cyclobutyl-2-(3-fluoro-1H-indazol-5-yl)-2-(4-((E)-2-(5-oxo-4,5-dihydro-1,2,4-oxadiazol-3-yl)vinyl)phenyl)vinyl)-5-(trifluoromethyl)benzonitrile] | ≥ 7.00 | ≥ 40 | ≤ 100 | ++ (++ = a single % value ≧ 40%)
6 | CS(=O)(=O)c1cc(Cl)ccc1/C(=C(\c1ccc(/C=C/C(=O)O)cc1)c1ccc2scnc2c1)C1CCC1 [Example 281, (E)-3-(4-((E)-1-(Benzo[d]thiazol-5-yl)-2-(4-chloro-2-(methylsulfonyl)phenyl)-2-cyclobutylvinyl)phenyl)acrylic acid] | ≥ 7.00 | ≥ 40 | ≤ 100 | ++ (++ = a single % value ≧ 40%)
7 | CS(=O)(=O)c1cc(Cl)ccc1/C(=C(\c1ccc(/C=C/C(=O)O)cc1)c1ccc2[nH]nc(F)c2c1)C1CCC1 [Example 282, (E)-3-(4-((E)-2-(4-Chloro-2-(methylsulfonyl)phenyl)-2-cyclobutyl-1-(3-fluoro-1H-indazol-5-yl)vinyl)phenyl)acrylic acid] | ≥ 7.00 | ≥ 40 | ≤ 100 | ++ (++ = a single % value ≧ 40%)
8 | O=c1[nH]nc(/C=C/c2ccc(/C(=C(\c3ccccc3)C3CCC3)c3ccc4[nH]nc(F)c4c3)cc2)[nH]1 [Example 283, 3-((E)-4-((E)-2-Cyclobutyl-1-(3-fluoro-1H-indazol-5-yl)-2-phenylvinyl)styryl)-1H-1,2,4-triazol-5(4H)-one] | ≥ 7.00 | ≥ 40 | ≤ 100 | ++ (++ = a single % value ≧ 40%)

— patent publication US9499538B2, “Estrogen receptor modulators and uses thereof” (Seragon Pharmaceuticals, Inc., priority 2012, dated 2016)
